# Where no end group is shown, it is not given here. The star is where a group is joined. ξ: configuration not given here. Lipoyl(6ξ) = O=C(CCCCC1CCSS1)*
# What was measured:
# [1] = test system: BEAS-2B cells; assay: In vitro transfection, Metridia luciferase assay in BEAS-2B cells; type: cell-based, human; conditions: for pDNA transfection efficiency of P704 ternary complex (in words): MetLuc pDNA, P704 50 (w/w), FIG. 14a
# Protocol: (§1) Preparation of IVT-mRNA/pDNA containing binary and ternary complexes: Stock solutions of P704 (5 mg/ml) and synthetic compound (1 mg/ml) were prepared in nuclease-free water (NF water) and stored at 4° C. P704 based binary complexes (P704/IVT-mRNA or P704/pDNA) were prepared by mixing equal volumes of diluted P704 stock solution with IVT-mRNA or pDNA solution at the desired concentration in 2× Tyrode's solution. Ternary complexes were generated via two-steps incubation. Briefly, P704 solutions at certain concentration (defined as weight/weight (w/w) ratio between P704 and nucleic acids) in NF-water were mixed with equal volume of synthetic compound solution at specific concentration (defined as N/P ratio, namely the […] between nitrogen residues in synthetic compound and nucleic acids phosphate groups). After 20 min incubation at room temperature (RT), same volumes of nucleic acid (IVT-mRNA or pDNA) solution in NF-water were added to the above P704/synthetic compound solution and mixed gently by pipetting up and down several times. Subsequently, complexes were incubated for another 20 min at RT prior to further use. IVT-mRNA or pDNA solutions in NF-water were complexed with brPEI (25 kDa) at an optimum N/P ratio, the resulting complexes were served as a control polyplex. As for control lipoplex, Lipofectamine® 2000 complexes were prepared according to the manufacturer's instructions using optimum concentration. In order to prepare DOTAP/DOPE liposomes, a lipid film was formed by removing the chloroform solvent in DOTAP/DOPE mixture solution under nitrogen atmosphere. The lipid film is hydrated with NF-water to make the final concentration 10 mM DOTAP/DOPE. The DOTAP/DOPE liposome formulation was formed by mixing 250 μl of pDNA encoding for firefly luciferase and cystic fibrosis transmembrane conductance regulator (fLUC-CFTR pDNA) (150 μg) containing solution and 250 μl diluted DOTAP/DOPE solution (190 μl of 10 mM DOTAP/DOPE liposome and 60 μl NF-water). The mix solution was incubated at RT for 20 min prior to further use.
# (§2) In vitro transfection: For the luciferase assay, cells were seeded at a density of 1.8×10^4/well (BEAS-2B) or 3.5×10^4/well (16HBE) in 96-well plates 24 h before transfection to reach 60-80% confluence. Following removal of growth medium, cells were rinsed with DPBS (Gibco, Germany). 170 μl of fresh serum-free OptiMEM (Gibco, Germany) were added per well, and subsequently 30 μl of IVT-mRNA or pDNA containing complexes prepared, as described above, corresponding to 400 ng IVT-mRNA or pDNA per well, were added in replicates of five. After 4 h of incubation at 37° C. in a humidified 5% CO2-containing atmosphere, the transfection medium was replaced with culture medium supplemented with 10% FBS and 1% (v/v) penicillin/streptomycin. Luciferase activity in 50 μl supernatants from transfected cells was assayed with Metridia luciferase substrate (coelenterazine, Invivogen, France) after 24 h using a FLUOstar microplate reader (BMG Labtech, Germany) and its activity is expressed in relative light units (RLU). In all cases each sample was measured on at least two other occasions to ensure the reproducibility of the data.
# The same transfection procedure as described above was applied. Luciferase activity was expressed in RLU. The data are given as the mean±standard deviation (SD) of the mean (n>5) in FIGS. 12a to 12k.
# (§3) The concentration of P704 in ternary complexes for treatment of BEAS-2B cells was 50 (w/w) and the concentration of P704 in ternary complexes for treatment of 16HBE cells was 63 (w/w). The N/P ratios of the compounds in ternary complexes were as follows:
# BEAS-2B cells: Compound 0 (DL) at 30, compound 1 at 20, compounds 3 and 11 at 15, compounds 4 and 6 at 10, compounds 2 and 9 at 5, compounds 5, 7, 8 and 10 at 2.5.
# The same transfection procedure as described above was applied. Luciferase activity was expressed in RLU. […]
# [2] = test system: 16HBE cells; assay: In vitro transfection, Metridia luciferase assay in 16HBE cells; type: cell-based, human
# [3] = test system: BEAS-2B cells; assay: In vitro transfection, Metridia luciferase assay in BEAS-2B cells; type: cell-based, human; conditions: for pDNA expression compared with compound 0 containing ternary complexes: day 3
# [4] = normalized: most hydrophobic residue 100, glycine 0, cited from earlier work; for hydrophobicity index At pH 2: from Sereda et al. 1994; for hydrophobicity index At pH 7: from Monera et al. 1995
# [5] = test system: airway epithelium cells; assay: In vitro transfection study on cultured airway epithelium cells (luciferase, RLU/mg cellular protein); type: cell-based; conditions: ternary complexes formed by P704, a nucleic acid and the compound
# Protocol: as §2, with “Luciferase activity in 50 μl supernatants from transfected cells was” left out, “[…]).” for “Germany) and its activity is expressed in relative light units (RLU).”
# [6] = test system: 16HBE cells; assay: In vitro transfection, Metridia luciferase assay in 16HBE cells; type: cell-based, human; conditions: for pDNA transfection efficiency of P704 ternary complex (in words): MetLuc pDNA, FIG. 14b
# Protocol: as §1
# as §2, with “data. […]” for “data.”
# as §3
# 16HBE cells: Compound 0 (DL) at 20, compounds 1 and 11 at 15, compounds 2 and 3 at 10, compounds 4, 6, 8, and 9 at 5, compounds 5, 7, and 10 at 2.5.
# The same transfection procedure as described above was applied.
# The concentration of P704 in ternary complexes was 63 (w/w). The N/P ratio of the compounds in certain ternary complexes was as follows:
# 16HBE cells: Compound 1, 8, and 11 at 20; compound 0 (DL) and 3 at 10; compound 2 at 7.5; compounds 4, 6, 9, and 10 at 5, compounds 5 and 7 at 2.5. […]
# [7] = MetLuc mRNA, optimum composition
# [8] = MetLuc pDNA, P704 ternary complex, day 3, optimum composition
Molecule,hydrophobicity index At pH 2 [4],hydrophobicity index At pH 7 [4],further results
DL-lipoic acid-WKKKKRRRRRKKKK-GACSERSMNFCG ({Lipoyl(6ξ)}-WKKKKRRRRRKKKKGACSERSMNFCG; cysteine pairing not given here) [compound 4],–,–,pDNA transfection efficiency of P704 ternary complex (in words) ([1]; optimum N/P): similar
DL-lipoic acid-WLHHHKKLLHHHKKL-GACSERSMNFCG ({Lipoyl(6ξ)}-WLHHHKKLLHHHKKLGACSERSMNFCG; cysteine pairing not given here) [compound 8],–,–,"luciferase expression of ternary complexes with P304 and MetLuc mRNA ([2]; P304 2000 (w/w), high N/P ratio, even higher than compound 9, FIG. 25a): rather high luciferase expression"
DL-lipoic acid-WKKRRRRRRRRKK-GACYGLPHKFCG ({Lipoyl(6ξ)}-WKKRRRRRRRRKKGACYGLPHKFCG; cysteine pairing not given here) [compound 7],–,–,pDNA transfection efficiency of P704 ternary complex (in words) ([1]; optimum N/P): similar; pDNA expression compared with compound 0 containing ternary complexes [3]: slightly better
"N[C@@H](Cc1ccc(O)cc1)C(=O)O [Tyrosine (tyr), Tyrosine]",49,63,–
NH2-VKRKKKPKKRRRRKKWK(R-lipoic acid)-CONH2 (H-VKRKKKPKKRRRRKKWK(R‑lipoic acid)-NH2) [compound 0 (R)],–,–,transfection efficiencies of ternary complexes with compound 0 (DL) versus compound 0 (R) [5]: similar
"NCCCC[C@H](N)C(=O)O [Lysine (lys), Lysine]",−37,−23,–
"C[C@H](N)C(=O)O [Alanine (ala), Alanine]",47,41,–
"N[C@@H](Cc1c[nH]cn1)C(=O)O [Histidine (his), Histidine]",−42,8,–
NH2-VKRKKKPKKRRRRKK-CONH2 (H-VKRKKKPKKRRRRKK-NH2) [compound 1],–,–,"IVT-mRNA transfection efficiency relative to P704/compound 0/IVT-mRNA complex [6, 7]: one third; pDNA transfection, share of maximum signal intensity of compound 0 counterpart [2, 8]: half; IVT-mRNA transfection efficiency relative to P704/compound 0/IVT-mRNA complex [1, 7]: one third; pDNA transfection, share of maximum signal intensity of compound 0 counterpart [3, 8]: 7%"
"N[C@@H](CS)C(=O)O [Cysteine (cys), Cysteine]",52,49,–
"CC(C)[C@H](N)C(=O)O [Valine (val), Valine]",79,76,–
DL-lipoic acid-WKKRRRRRRRRRKK-GACSERSMNFCG ({Lipoyl(6ξ)}-WKKRRRRRRRRRKKGACSERSMNFCG; cysteine pairing not given here) [compound 6],–,–,"pDNA transfection efficiency of P704 ternary complex (in words) ([6]; P704 63 (w/w), optimum N/P): overwhelming signals"
"CC[C@H](C)[C@H](N)C(=O)O [Isoleucine (ile), Isoleucine]",100,99,–
"N[C@@H](Cc1c[nH]c2ccccc12)C(=O)O [Tryptophan (trp), Tryptophan]",84,97,–
DL-lipoic acid-WKKKKRRRRRKKKK-GACYGLPHKFCG ({Lipoyl(6ξ)}-WKKKKRRRRRKKKKGACYGLPHKFCG; cysteine pairing not given here) [compound 5],–,–,pDNA transfection efficiency of P704 ternary complex (in words) ([1]; optimum N/P): similar; pDNA expression compared with compound 0 containing ternary complexes [3]: slightly better
"NC(=O)C[C@H](N)C(=O)O [Asparagine (asn), Asparagine]",−41,−28,–
"CSCC[C@H](N)C(=O)O [Methionine (met), Methionine]",74,74,–
"N[C@@H](Cc1ccccc1)C(=O)O [Phenylalanine (phe), Phenylalanine]",92,100,–
"O=C(O)CCCCC1CCSS1 (racemic) [compound 2, DL-lipoic acid, reference compound]",–,–,"IVT-mRNA transfection efficiency of P704 ternary complex (in words) ([6]; MetLuc mRNA, P704 63 (w/w), optimum N/P, FIG. 17b): rather low transfection efficiency; pDNA transfection efficiency of P704 ternary complex (in words) ([6]; P704 63 (w/w), optimum N/P): rather low transfection efficiency; IVT-mRNA transfection efficiency of P704 ternary complex (in words) ([1]; MetLuc mRNA, P704 63 (w/w), optimum N/P, FIG. 17a): rather low transfection efficiency; pDNA transfection efficiency of P704 ternary complex (in words) ([1]; optimum N/P): rather low transfection efficiency"
